Results: ChEMBL document CHEMBL3414527, “Engineering potent and selective analogues of GpTx-1, a tarantula venom peptide antagonist of the Na(V)1.7 sodium channel” (J Med Chem, 2015)
pIC50: −log10 of the molar value. Bridge positions count the residues as written; N and C are the ends. Peptide text beside a SMILES is read from it.

Assays:
[1] = target: Sodium channel protein type 9 subunit alpha (Homo sapiens, UniProt Q15858); test: Inhibition of human NaV1.7 at -140 mV holding potential by whole-cell patch clamp assay
[2] = target: Sodium channel protein type 5 subunit alpha (Homo sapiens, UniProt Q14524); test: Inhibition of human NaV1.5 at -140 mV holding potential by whole-cell patch clamp assay
Sequence of Sodium channel protein type 5 subunit alpha (Q14524 whole entry): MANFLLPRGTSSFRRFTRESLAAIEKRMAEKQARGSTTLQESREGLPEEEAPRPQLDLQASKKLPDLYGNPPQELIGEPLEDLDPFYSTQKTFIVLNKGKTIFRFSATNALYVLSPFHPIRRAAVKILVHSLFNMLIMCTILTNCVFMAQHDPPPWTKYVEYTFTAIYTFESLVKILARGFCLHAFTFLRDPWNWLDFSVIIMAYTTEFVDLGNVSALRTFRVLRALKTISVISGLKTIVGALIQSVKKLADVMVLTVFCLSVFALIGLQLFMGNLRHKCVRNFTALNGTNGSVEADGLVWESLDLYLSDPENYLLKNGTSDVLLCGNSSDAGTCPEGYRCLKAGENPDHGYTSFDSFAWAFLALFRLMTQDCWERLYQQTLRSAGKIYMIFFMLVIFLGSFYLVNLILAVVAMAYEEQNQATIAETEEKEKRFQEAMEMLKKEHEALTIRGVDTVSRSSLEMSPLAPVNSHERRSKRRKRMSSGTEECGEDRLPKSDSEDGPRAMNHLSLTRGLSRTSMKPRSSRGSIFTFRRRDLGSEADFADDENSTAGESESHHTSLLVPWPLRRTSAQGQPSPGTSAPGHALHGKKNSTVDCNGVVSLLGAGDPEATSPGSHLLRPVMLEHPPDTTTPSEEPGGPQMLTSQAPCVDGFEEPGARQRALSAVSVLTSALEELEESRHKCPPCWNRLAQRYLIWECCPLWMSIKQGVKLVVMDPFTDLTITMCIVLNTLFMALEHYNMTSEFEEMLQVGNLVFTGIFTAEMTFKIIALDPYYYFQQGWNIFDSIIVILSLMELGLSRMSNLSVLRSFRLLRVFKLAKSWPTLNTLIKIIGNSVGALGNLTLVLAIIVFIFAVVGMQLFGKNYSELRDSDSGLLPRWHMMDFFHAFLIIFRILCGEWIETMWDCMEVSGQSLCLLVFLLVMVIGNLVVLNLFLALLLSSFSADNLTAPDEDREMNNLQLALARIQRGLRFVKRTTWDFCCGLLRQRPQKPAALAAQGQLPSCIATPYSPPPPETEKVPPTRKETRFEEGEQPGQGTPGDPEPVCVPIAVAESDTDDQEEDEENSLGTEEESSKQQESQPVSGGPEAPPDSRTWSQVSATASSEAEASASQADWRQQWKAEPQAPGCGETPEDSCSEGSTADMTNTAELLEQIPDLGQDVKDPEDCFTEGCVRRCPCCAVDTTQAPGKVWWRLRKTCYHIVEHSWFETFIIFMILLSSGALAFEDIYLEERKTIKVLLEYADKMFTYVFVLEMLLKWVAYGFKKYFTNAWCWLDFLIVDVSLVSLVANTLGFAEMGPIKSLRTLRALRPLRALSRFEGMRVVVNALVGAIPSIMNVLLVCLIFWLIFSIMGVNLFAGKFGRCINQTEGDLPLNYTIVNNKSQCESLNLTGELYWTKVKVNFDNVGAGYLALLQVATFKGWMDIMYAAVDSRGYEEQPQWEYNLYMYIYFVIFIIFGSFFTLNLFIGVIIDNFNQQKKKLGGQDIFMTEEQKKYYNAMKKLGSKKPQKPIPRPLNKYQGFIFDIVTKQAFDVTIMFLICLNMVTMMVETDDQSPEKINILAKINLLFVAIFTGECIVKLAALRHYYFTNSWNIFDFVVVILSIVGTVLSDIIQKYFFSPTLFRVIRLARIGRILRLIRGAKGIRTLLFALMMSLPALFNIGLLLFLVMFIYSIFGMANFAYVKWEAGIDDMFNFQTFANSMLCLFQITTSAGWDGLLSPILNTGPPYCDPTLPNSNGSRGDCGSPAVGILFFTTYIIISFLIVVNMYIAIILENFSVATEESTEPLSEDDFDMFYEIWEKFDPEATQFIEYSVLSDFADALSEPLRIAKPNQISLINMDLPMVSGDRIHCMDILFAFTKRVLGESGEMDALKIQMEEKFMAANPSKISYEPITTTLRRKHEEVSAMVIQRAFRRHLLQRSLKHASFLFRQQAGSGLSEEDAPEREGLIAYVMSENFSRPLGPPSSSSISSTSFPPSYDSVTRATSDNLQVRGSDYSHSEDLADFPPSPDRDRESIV

Sequence of Sodium channel protein type 9 subunit alpha (Q15858 whole entry): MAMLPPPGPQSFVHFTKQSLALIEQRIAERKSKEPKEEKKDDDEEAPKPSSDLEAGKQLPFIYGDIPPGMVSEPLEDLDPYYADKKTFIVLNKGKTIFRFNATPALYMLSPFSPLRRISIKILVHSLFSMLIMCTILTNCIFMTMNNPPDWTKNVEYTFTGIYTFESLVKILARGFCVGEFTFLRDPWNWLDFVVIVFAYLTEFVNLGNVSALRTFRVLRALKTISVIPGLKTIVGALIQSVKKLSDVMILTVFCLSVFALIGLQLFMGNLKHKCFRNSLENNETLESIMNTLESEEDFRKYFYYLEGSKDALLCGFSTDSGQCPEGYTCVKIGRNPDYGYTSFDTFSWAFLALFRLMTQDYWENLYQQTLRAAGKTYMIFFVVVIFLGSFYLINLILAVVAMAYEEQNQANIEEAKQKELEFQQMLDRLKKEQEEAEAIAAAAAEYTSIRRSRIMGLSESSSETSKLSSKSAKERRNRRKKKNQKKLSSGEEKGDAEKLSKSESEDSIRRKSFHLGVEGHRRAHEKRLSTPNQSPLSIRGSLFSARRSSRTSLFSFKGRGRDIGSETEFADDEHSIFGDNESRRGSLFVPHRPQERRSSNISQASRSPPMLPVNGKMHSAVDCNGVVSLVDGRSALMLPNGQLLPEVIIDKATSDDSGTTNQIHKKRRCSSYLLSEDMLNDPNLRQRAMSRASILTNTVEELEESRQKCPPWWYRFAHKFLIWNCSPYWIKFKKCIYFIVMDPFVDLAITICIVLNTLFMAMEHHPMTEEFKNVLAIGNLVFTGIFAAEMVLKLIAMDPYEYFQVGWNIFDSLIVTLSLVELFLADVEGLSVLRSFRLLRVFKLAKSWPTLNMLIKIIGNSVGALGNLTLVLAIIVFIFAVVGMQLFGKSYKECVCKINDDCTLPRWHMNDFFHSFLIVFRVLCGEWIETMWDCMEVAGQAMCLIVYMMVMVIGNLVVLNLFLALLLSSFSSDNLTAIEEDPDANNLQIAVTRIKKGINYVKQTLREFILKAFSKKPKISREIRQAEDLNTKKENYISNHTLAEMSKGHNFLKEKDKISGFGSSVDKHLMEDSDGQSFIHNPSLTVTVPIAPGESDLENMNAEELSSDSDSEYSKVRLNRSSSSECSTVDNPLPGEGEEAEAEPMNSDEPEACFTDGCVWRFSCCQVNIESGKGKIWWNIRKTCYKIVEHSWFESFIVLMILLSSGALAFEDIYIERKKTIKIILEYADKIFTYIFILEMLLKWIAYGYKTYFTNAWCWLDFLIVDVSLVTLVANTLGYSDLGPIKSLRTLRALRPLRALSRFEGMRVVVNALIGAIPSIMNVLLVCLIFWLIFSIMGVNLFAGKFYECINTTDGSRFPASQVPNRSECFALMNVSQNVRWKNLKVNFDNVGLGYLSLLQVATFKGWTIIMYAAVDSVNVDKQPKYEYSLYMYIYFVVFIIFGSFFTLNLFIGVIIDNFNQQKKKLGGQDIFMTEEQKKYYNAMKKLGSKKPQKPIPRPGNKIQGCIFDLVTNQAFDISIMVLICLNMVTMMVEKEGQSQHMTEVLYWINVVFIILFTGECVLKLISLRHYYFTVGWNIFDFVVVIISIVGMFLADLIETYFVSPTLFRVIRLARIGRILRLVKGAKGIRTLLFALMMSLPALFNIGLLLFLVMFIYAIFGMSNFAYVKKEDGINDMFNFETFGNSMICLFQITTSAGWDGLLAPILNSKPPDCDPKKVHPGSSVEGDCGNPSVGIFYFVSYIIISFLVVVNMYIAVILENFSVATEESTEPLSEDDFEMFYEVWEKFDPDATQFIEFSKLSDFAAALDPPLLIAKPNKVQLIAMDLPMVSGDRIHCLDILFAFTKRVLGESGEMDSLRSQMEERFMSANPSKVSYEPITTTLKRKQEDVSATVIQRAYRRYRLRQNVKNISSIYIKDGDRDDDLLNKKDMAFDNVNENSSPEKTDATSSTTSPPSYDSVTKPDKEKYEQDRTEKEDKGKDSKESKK

| SMILES | pIC50 [1] | pIC50 [2] |
| --- | --- | --- |
| CC[C@H](C)[C@@H]1NC(=O)[C@@H]2CSSC[C@@H]3NC(=O)[C@H](C(C)C)NC(=O)[C@H](CC(C)C)NC(=O)[C@H](CC(N)=O)NC(=O)[C@@H]4CCCN4C(=O)[C@H](CCCNC(=N)N)NC(=O)[C@H](CSSC[C@H](NC(=O)[C@@H](N)CC(=O)O)C(=O)N[C@@H](CC(C)C)C(=O)NCC(=O)N[C@@H](Cc4ccccc4)C(=O)N[C@@H](CCSC)C(=O)N[C@@H](CCCNC(=N)N)C(=O)N[C@@H](CCCCN)C(=O)N2)NC(=O)[C@H](CSSC[C@@H](C(=O)N[C@@H](CCCCN)C(=O)N[C@@H](Cc2ccc(O)cc2)C(=O)N[C@H](C(=O)N[C@@H](Cc2ccccc2)C(N)=O)C(C)C)NC(=O)[C@H](Cc2c[nH]c4ccccc24)NC(=O)[C@H](CCCCN)NC(=O)[C@H](Cc2cnc[nH]2)NC(=O)[C@H](C)NC(=O)[C@H](CCCNC(=N)N)NC(=O)[C@H](CO)NC3=O)NC(=O)[C@H](CCCCN)NC(=O)[C@H](CC(=O)O)NC(=O)[C@H](CC(N)=O)NC(=O)[C@H](CC(=O)O)NC(=O)[C@@H]2CCCN2C1=O (H-DCLGFMRKCIPDNDKCCRPNLVCSRAHKWCKYVF-NH2; disulfide 2-17, 9-23, 16-30) | 6.59 | < 5.30 |
| CC[C@H](C)[C@@H]1NC(=O)[C@@H]2CSSC[C@@H]3NC(=O)[C@H](C(C)C)NC(=O)[C@H](CC(C)C)NC(=O)[C@H](CC(N)=O)NC(=O)[C@@H]4CCCN4C(=O)[C@H](CCCNC(=N)N)NC(=O)[C@H](CSSC[C@H](NC(=O)[C@@H](N)CC(=O)O)C(=O)N[C@@H](CC(C)C)C(=O)NCC(=O)N[C@@H](Cc4ccccc4)C(=O)N[C@@H](Cc4ccccc4)C(=O)N[C@@H](CCCNC(=N)N)C(=O)N[C@@H](CCCCN)C(=O)N2)NC(=O)[C@H](CSSC[C@@H](C(=O)N[C@@H](CCCCN)C(=O)N[C@@H](Cc2ccc(O)cc2)C(=O)N[C@H](C(=O)N[C@@H](Cc2ccccc2)C(N)=O)C(C)C)NC(=O)[C@H](Cc2c[nH]c4ccccc24)NC(=O)[C@H](CCCCN)NC(=O)[C@H](Cc2cnc[nH]2)NC(=O)[C@H]([C@@H](C)O)NC(=O)[C@H](CCCNC(=N)N)NC(=O)[C@H](CO)NC3=O)NC(=O)[C@H](CCCCN)NC(=O)[C@H](CC(=O)O)NC(=O)[C@H](CC(N)=O)NC(=O)[C@H](CC(=O)O)NC(=O)[C@@H]2CCCN2C1=O (H-DCLGFFRKCIPDNDKCCRPNLVCSRTHKWCKYVF-NH2; disulfide 2-17, 9-23, 16-30) | 7.72 | 5.52 |
| CC[C@H](C)[C@@H]1NC(=O)[C@@H]2CSSC[C@@H]3NC(=O)[C@H](C(C)C)NC(=O)[C@H](CC(C)C)NC(=O)[C@H](CC(N)=O)NC(=O)[C@@H]4CCCN4C(=O)[C@H](CCCNC(=N)N)NC(=O)[C@H](CSSC[C@H](NC(=O)[C@@H](N)CC(=O)O)C(=O)N[C@@H](CC(C)C)C(=O)NCC(=O)N[C@@H](Cc4ccccc4)C(=O)N[C@@H](Cc4ccc(O)cc4)C(=O)N[C@@H](CCCNC(=N)N)C(=O)N[C@@H](CCCCN)C(=O)N2)NC(=O)[C@H](CSSC[C@@H](C(=O)N[C@@H](CCCCN)C(=O)N[C@@H](Cc2ccc(O)cc2)C(=O)N[C@H](C(=O)N[C@@H](Cc2ccccc2)C(N)=O)C(C)C)NC(=O)[C@H](Cc2c[nH]c4ccccc24)NC(=O)[C@H](CCCCN)NC(=O)[C@H](Cc2cnc[nH]2)NC(=O)[C@H]([C@@H](C)O)NC(=O)[C@H](CCCNC(=N)N)NC(=O)[C@H](CO)NC3=O)NC(=O)[C@H](CCCCN)NC(=O)[C@H](CC(=O)O)NC(=O)[C@H](CC(N)=O)NC(=O)[C@H](CC(=O)O)NC(=O)[C@@H]2CCCN2C1=O (H-DCLGFYRKCIPDNDKCCRPNLVCSRTHKWCKYVF-NH2; disulfide 2-17, 9-23, 16-30) | 7.20 | < 5.00 |
| CC[C@H](C)[C@@H]1NC(=O)[C@@H]2CSSC[C@@H]3NC(=O)[C@H](C(C)C)NC(=O)[C@H](CC(C)C)NC(=O)[C@H](CC(N)=O)NC(=O)[C@@H]4CCCN4C(=O)[C@H](CCCNC(=N)N)NC(=O)[C@H](CSSC[C@H](NC(=O)[C@@H](N)CC(=O)O)C(=O)N[C@@H](CC(C)C)C(=O)NCC(=O)N[C@@H](C4CCCCC4)C(=O)N[C@@H](CCSC)C(=O)N[C@@H](CCCNC(=N)N)C(=O)N[C@@H](CCCCN)C(=O)N2)NC(=O)[C@H](CSSC[C@@H](C(=O)N[C@@H](CCCCN)C(=O)N[C@@H](Cc2ccc(O)cc2)C(=O)N[C@H](C(=O)N[C@@H](Cc2ccccc2)C(N)=O)C(C)C)NC(=O)[C@H](Cc2c[nH]c4ccccc24)NC(=O)[C@H](CCCCN)NC(=O)[C@H](Cc2cnc[nH]2)NC(=O)[C@H]([C@@H](C)O)NC(=O)[C@H](CCCNC(=N)N)NC(=O)[C@H](CO)NC3=O)NC(=O)[C@H](CCCCN)NC(=O)[C@H](CC(=O)O)NC(=O)[C@H](CC(N)=O)NC(=O)[C@H](CC(=O)O)NC(=O)[C@@H]2CCCN2C1=O | 8.22 | < 5.00 |
| CC[C@H](C)[C@@H]1NC(=O)[C@@H]2CSSC[C@@H]3NC(=O)[C@H](C(C)C)NC(=O)[C@H](C)NC(=O)[C@H](CC(N)=O)NC(=O)[C@@H]4CCCN4C(=O)[C@H](CCCNC(=N)N)NC(=O)[C@H](CSSC[C@H](NC(=O)[C@@H](N)CC(=O)O)C(=O)N[C@@H](CC(C)C)C(=O)NCC(=O)N[C@@H](Cc4ccccc4)C(=O)N[C@@H](CCSC)C(=O)N[C@@H](CCCNC(=N)N)C(=O)N[C@@H](CCCCN)C(=O)N2)NC(=O)[C@H](CSSC[C@@H](C(=O)N[C@@H](CCCCN)C(=O)N[C@@H](Cc2ccc(O)cc2)C(=O)N[C@H](C(=O)N[C@@H](Cc2ccccc2)C(N)=O)C(C)C)NC(=O)[C@H](Cc2c[nH]c4ccccc24)NC(=O)[C@H](CCCCN)NC(=O)[C@H](Cc2cnc[nH]2)NC(=O)[C@H]([C@@H](C)O)NC(=O)[C@H](CCCNC(=N)N)NC(=O)[C@H](CO)NC3=O)NC(=O)[C@H](CCCCN)NC(=O)[C@H](CC(=O)O)NC(=O)[C@H](CC(N)=O)NC(=O)[C@H](CC(=O)O)NC(=O)[C@@H]2CCCN2C1=O (H-DCLGFMRKCIPDNDKCCRPNAVCSRTHKWCKYVF-NH2; disulfide 2-17, 9-23, 16-30) | 6.72 | < 4.70 |
| CC[C@H](C)[C@@H]1NC(=O)[C@@H]2CSSC[C@@H]3NC(=O)[C@H](C(C)C)NC(=O)[C@H](CC(C)C)NC(=O)[C@H](CC(N)=O)NC(=O)[C@@H]4CCCN4C(=O)[C@H](CCCNC(=N)N)NC(=O)[C@H](CSSC[C@H](NC(=O)[C@@H](N)CC(=O)O)C(=O)N[C@@H](C)C(=O)NCC(=O)N[C@@H](Cc4ccccc4)C(=O)N[C@@H](CCSC)C(=O)N[C@@H](CCCNC(=N)N)C(=O)N[C@@H](CCCCN)C(=O)N2)NC(=O)[C@H](CSSC[C@@H](C(=O)N[C@@H](CCCCN)C(=O)N[C@@H](Cc2ccc(O)cc2)C(=O)N[C@H](C(=O)N[C@@H](Cc2ccccc2)C(N)=O)C(C)C)NC(=O)[C@H](Cc2c[nH]c4ccccc24)NC(=O)[C@H](CCCCN)NC(=O)[C@H](Cc2cnc[nH]2)NC(=O)[C@H]([C@@H](C)O)NC(=O)[C@H](CCCNC(=N)N)NC(=O)[C@H](CO)NC3=O)NC(=O)[C@H](CCCCN)NC(=O)[C@H](CC(=O)O)NC(=O)[C@H](CC(N)=O)NC(=O)[C@H](CC(=O)O)NC(=O)[C@@H]2CCCN2C1=O (H-DCAGFMRKCIPDNDKCCRPNLVCSRTHKWCKYVF-NH2; disulfide 2-17, 9-23, 16-30) | 6.37 | < 5.30 |
| CC[C@H](C)[C@@H]1NC(=O)[C@@H]2CSSC[C@@H]3NC(=O)[C@H](C(C)C)NC(=O)[C@H](CC(C)C)NC(=O)[C@H](CC(N)=O)NC(=O)[C@@H]4CCCN4C(=O)[C@H](CCCNC(=N)N)NC(=O)[C@H](CSSC[C@H](NC(=O)[C@@H](N)CC(=O)O)C(=O)N[C@@H](CC(C)C)C(=O)NCC(=O)N[C@@H](Cc4ccccc4)C(=O)N[C@@H](CCSC)C(=O)N[C@@H](CCCNC(=N)N)C(=O)N[C@@H](CCCCN)C(=O)N2)NC(=O)[C@H](CSSC[C@@H](C(=O)N[C@@H](CCCCN)C(=O)N[C@@H](Cc2ccc(O)cc2)C(=O)N[C@H](C(=O)N[C@@H](Cc2ccccc2)C(N)=O)C(C)C)NC(=O)[C@H](Cc2c[nH]c4ccccc24)NC(=O)[C@H](CCCCN)NC(=O)[C@H](C)NC(=O)[C@H]([C@@H](C)O)NC(=O)[C@H](CCCNC(=N)N)NC(=O)[C@H](CO)NC3=O)NC(=O)[C@H](CCCCN)NC(=O)[C@H](CC(=O)O)NC(=O)[C@H](CC(N)=O)NC(=O)[C@H](CC(=O)O)NC(=O)[C@@H]2CCCN2C1=O (H-DCLGFMRKCIPDNDKCCRPNLVCSRTAKWCKYVF-NH2; disulfide 2-17, 9-23, 16-30) | 6.01 | < 5.30 |
| CC[C@H](C)[C@@H]1NC(=O)[C@@H]2CSSC[C@@H]3NC(=O)[C@H](C(C)C)NC(=O)[C@H](CC(C)C)NC(=O)[C@H](CC(N)=O)NC(=O)[C@@H]4CCCN4C(=O)[C@H](C)NC(=O)[C@H](CSSC[C@H](NC(=O)[C@@H](N)CC(=O)O)C(=O)N[C@@H](CC(C)C)C(=O)NCC(=O)N[C@@H](Cc4ccccc4)C(=O)N[C@@H](CCSC)C(=O)N[C@@H](CCCNC(=N)N)C(=O)N[C@@H](CCCCN)C(=O)N2)NC(=O)[C@H](CSSC[C@@H](C(=O)N[C@@H](CCCCN)C(=O)N[C@@H](Cc2ccc(O)cc2)C(=O)N[C@H](C(=O)N[C@@H](Cc2ccccc2)C(N)=O)C(C)C)NC(=O)[C@H](Cc2c[nH]c4ccccc24)NC(=O)[C@H](CCCCN)NC(=O)[C@H](Cc2cnc[nH]2)NC(=O)[C@H]([C@@H](C)O)NC(=O)[C@H](CCCNC(=N)N)NC(=O)[C@H](CO)NC3=O)NC(=O)[C@H](CCCCN)NC(=O)[C@H](CC(=O)O)NC(=O)[C@H](CC(N)=O)NC(=O)[C@H](CC(=O)O)NC(=O)[C@@H]2CCCN2C1=O (H-DCLGFMRKCIPDNDKCCAPNLVCSRTHKWCKYVF-NH2; disulfide 2-17, 9-23, 16-30) | 6.89 | < 4.70 |
